Test results taken from patent publication US11673889B2, “Substituted imidazo[4,5-c][1,8]naphthyridines as phosphodiesterase inhibitors” (Nanjing Zhengxiang Pharmaceuticals Co., Ltd., priority 2019, dated 2023).

Key:
human soluble ENPP1 [1] = biological target: T1, human soluble ENPP1 (Homo sapiens, UniProt P22413); experiment: ENPP1 activity assay using p-Nitrophenyl-5′-TMP as a substrate; format: biochemical
T1 construct: 20 ng of human soluble ENPP1
T1 sequence (P22413 103-925 limits assumed): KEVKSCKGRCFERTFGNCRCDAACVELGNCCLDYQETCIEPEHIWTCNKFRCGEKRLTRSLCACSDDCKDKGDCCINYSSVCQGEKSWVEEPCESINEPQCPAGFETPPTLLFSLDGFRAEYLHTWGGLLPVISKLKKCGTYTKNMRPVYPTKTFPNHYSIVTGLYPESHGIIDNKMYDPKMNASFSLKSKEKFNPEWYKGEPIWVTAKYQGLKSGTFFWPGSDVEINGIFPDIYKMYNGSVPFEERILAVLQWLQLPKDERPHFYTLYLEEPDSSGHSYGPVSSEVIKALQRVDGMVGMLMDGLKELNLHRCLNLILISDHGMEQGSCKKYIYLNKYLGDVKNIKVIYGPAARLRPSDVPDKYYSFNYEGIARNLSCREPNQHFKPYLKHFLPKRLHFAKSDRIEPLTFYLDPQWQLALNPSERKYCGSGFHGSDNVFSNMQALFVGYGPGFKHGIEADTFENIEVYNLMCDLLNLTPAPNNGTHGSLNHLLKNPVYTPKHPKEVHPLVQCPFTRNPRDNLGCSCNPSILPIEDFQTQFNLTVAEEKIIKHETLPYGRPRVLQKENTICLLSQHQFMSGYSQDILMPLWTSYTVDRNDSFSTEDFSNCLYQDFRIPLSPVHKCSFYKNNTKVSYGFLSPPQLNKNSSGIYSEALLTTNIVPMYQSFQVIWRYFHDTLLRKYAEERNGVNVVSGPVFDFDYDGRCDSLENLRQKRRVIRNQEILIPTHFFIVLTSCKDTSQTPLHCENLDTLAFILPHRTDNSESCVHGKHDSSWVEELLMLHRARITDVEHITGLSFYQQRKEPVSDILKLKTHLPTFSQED
Protocol: ENPP1 is a transmembrane glycoprotein that hydrolyzes nucleotides and nucleotide derivatives with the formation of nucleotide-5′-monophosphates. ENPP1 hydrolyzes artificial phosphoric acid ester thymidine 5′monophosphate p-nitrophenyl ester (TMP-pNP) to nucleotide-5′-monophosphate and p-nitrophenol, which is a chromogenic product.
Load into a well with 20 ng of human soluble ENPP1 in 50 μL and incubate at room temperature with 25 μL inhibitor solution (4× Final Concentration) for 30 mins. Then, add 25 μL 2 mM TMP solution (2× Final Concentration) into the well, Incubate at RT for 1 hour.
(§1) The percent inhibition at each compound is calculated as follows: % inhibition=(ODMAX−ODCOMPOUND)/(ODMAX−ODMIN)*100. (MAX: absence of ENPP1 inhibitors control, MIN: blank control.)
The IC50 values for percent inhibition versus compound concentration were determined by fitting the inhibition curves using a four-parameter variable slope model in GraphPad Prism® 8.

human soluble ENPP1 [2] = biological target: T1, human soluble ENPP1; experiment: ENPP1 activity assay using p-Nitrophenyl-5′-AMP as a substrate; format: biochemical
Protocol: AMP-pNP can be used as substrate of ENPP-1. Its hydrolysis products were nucleotide-5′-monophosphate and p-nitrophcnol, which is also a chromogenic product. The amount of p-nitrophenol product formed is measured using its absorbance at 405 nm, which is directly proportional to enzyme activity.
Load into a well with […] of human soluble ENPP1 in 50 μL and incubate at room temperature with 25 μL inhibitor solution (4× Final Concentration) for 30 mins prior adding 25 μL 3 mM AMP solution (2× Final Concentration) into the well, Incubate at RT for 1 hour. The amounts of released p-nitrophenolate were measured by reading OD value at 405 nm.
as §1
(§2) The IC50 values for percent inhibition versus compound concentration are determined by fitting the inhibition curves using a four-parameter variable slope model in GraphPad Prism® 8.

ENPP-1, MDA-MB-231 cells = biological target: T2, ENPP-1, MDA-MB-231 cells (Homo sapiens, UniProt P22413); experiment: cell-based; details: for inhibition at 20 µM: MDA-MB-231, read-out: % Inhibition (at 20 μM)
T2 sequence (P22413 1-925): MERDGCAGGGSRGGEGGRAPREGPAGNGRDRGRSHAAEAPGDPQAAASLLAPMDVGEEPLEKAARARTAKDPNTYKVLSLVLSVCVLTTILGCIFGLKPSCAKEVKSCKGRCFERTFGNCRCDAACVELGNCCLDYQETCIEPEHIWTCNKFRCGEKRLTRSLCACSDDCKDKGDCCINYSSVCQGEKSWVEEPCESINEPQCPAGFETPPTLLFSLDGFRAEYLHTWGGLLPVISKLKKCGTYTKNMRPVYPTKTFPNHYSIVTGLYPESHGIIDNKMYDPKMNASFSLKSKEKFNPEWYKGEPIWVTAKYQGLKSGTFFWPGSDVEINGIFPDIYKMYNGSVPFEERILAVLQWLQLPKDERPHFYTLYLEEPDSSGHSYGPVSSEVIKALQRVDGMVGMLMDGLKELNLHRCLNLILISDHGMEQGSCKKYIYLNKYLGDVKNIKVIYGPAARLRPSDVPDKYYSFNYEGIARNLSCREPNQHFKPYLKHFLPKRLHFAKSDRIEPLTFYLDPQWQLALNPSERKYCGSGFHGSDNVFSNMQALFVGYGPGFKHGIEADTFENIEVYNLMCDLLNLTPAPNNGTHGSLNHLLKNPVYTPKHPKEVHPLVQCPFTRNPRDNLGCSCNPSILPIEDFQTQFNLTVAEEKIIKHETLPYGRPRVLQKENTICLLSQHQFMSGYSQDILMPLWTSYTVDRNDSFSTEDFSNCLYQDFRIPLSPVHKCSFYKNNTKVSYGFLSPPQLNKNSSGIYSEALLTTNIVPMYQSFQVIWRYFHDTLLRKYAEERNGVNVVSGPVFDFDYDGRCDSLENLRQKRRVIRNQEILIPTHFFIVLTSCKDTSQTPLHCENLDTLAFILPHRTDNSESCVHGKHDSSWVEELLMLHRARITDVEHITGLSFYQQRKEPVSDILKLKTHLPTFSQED
Protocol: ENPP-1 were mainly expressed on the surface of cell membrane where it hydrolytes 2′3′-cGAMP to generate 5′-GMP and 5′-AMP. ENPP-1 also has the ability to hydrolyzes artificial phosphoric acid ester TMP-pNP to nucleotide-5′-monophosphate and p-nitrophcnol there, which is a chromogenic product.
8 point of different concentrations of each inhibitor were prepared with the final assay concentrations starting at 20 μM. 3× series dilution by DMEM medium without FBS was applied. Prior to adding inhibitors, 75000 cells per well were incubated at 37° C., 5% CO2 in DMEM for 24 hours. After removing the supernatant medium, 50 μL inhibitor solution was added into each well with cultured cells and incubate at 37° C., 5% CO2 for 60 minutes.
as §2

Row | Compound | IC50 (human soluble ENPP1 [1]) [nM] | IC50 (human soluble ENPP1 [2]) [nM] | other results
1 | COc1ccc2c(ncc3[nH]c(=O)n(Cc4c(F)cc(S(=O)(=O)NC(C)=O)cc4F)c32)n1 [Compound 104, sodium acetyl((3,5-difluoro-4-((7-methoxy-2-oxo-2,3-dihydro-1H-imidazo[4,5-c][1,8]naphthyridin-1-yl)methyl)phenyl)sulfonyl)amide] | 8.9 | 11 | IC50 (ENPP-1, MDA-MB-231 cells): 3.4 µM; inhibition at 20 µM (ENPP-1, MDA-MB-231 cells): 72%
2 | COc1cc2ncc3c(c2cc1OC)n(Cc1ccc(S(N)(=O)=O)cc1)c(=O)n3C [Compound 2, 4-((7,8-dimethoxy-3-methyl-2-oxo-2,3-dihydro-1H-imidazo[4,5-c]quinolin-1-yl)methyl)benzenesulfonamide] | 10 | – | –
3 | COc1ccc2c(ncc3ncn(Cc4c(F)cc(S(N)(=O)=O)cc4F)c32)n1 [Compound 129, 3,5-difluoro-4-((7-methoxy-1H-imidazo[4,5-c][1,8]naphthyridin-1-yl)methyl)benzenesulfonamide] | 0.1 | 0.19 | –
4 | CCCC(=O)NS(=O)(=O)c1cc(F)c(Cn2c(=O)[nH]c3cnc4nc(OC)ccc4c32)c(F)c1 [Compound 106, sodium butyryl((3,5-difluoro-4-((7-methoxy-2-oxo-2,3-dihydro-1H-imidazo[4,5-c][1,8]naphthyridin-1-yl)methyl)phenyl)sulfonyl)amide] | – | – | IC50 (ENPP-1, MDA-MB-231 cells): > 6.7 µM; inhibition at 20 µM (ENPP-1, MDA-MB-231 cells): 57%
5 | COc1cc2ncc3nnn(Cc4ccc(S(N)(=O)=O)cc4)c3c2cc1OC [Compound 13, 4-((7,8-dimethoxy-1H-[1,2,3]triazolo[4,5-c]quinolin-1-yl)methyl)benzenesulfonamide] | 4.3 | 33 | –
6 | COc1cc2ncc3ncn(Cc4ccc(S(N)(=O)=O)cc4)c3c2cn1 [Compound 50, 4-((7-methoxy-1H-imidazo[4,5-c][1,6]naphthyridin-1-yl)methyl)benzenesulfonamide] | 28 | – | –
7 | COc1nc2nc(C)c3nc(C)n(Cc4ncc(S(N)(=O)=O)cn4)c3c2cc1Cl [Compound 91b, 2-((6-chloro-7-methoxy-2,4-dimethyl-1H-imidazo[4,5-c][1,8]naphthyridin-1-yl)methyl)pyrimidine-5-sulfonamide] | 62 | 199 | –
8 | COc1ccc2c(ncc3[nH]c(=O)n(Cc4ccc(CS(N)(=O)=O)cc4)c32)n1 [Compound 128, (4-((7-Methoxy-2-oxo-2,3-dihydro-1H-imidazo[4,5-c][1,8]naphthyridin-1-yl)methyl)phenyl)-methanesulfonamide] | – | – | inhibition at 20 µM (ENPP-1, MDA-MB-231 cells): 82%
9 | CNS(=O)(=O)c1cc(F)c(Cn2c(=O)[nH]c3cnc4nc(OC)ccc4c32)c(F)c1 [Compound 107, 3,5-difluoro-4-((7-methoxy-2-oxo-2,3-dihydro-1H-imidazo[4,5-c][1,8]naphthyridin-1-yl)methyl)-N-methylbenzenesulfonamide] | 43 | 79 | –
10 | COc1ccc2c(ncc3nc(C)n(Cc4c(F)cc(S(N)(=O)=O)cc4F)c32)n1 [Compound 130, 3,5-difluoro-4-((7-methoxy-2-methyl-1H-imidazo[4,5-c][1,8]naphthyridin-1-yl)methyl)benzenesulfonamide] | – | 0.16 | IC50 (human soluble ENPP1 [1]; substrate TMP-pNP, 20 ng human soluble ENPP1, Tris buffer pH 9.5, read-out: TMP-pNP (IC50)): 0.16 nM
11 | COc1cc2ncc3ncn([C@@H](C)c4ccc(S(N)(=O)=O)cc4)c3c2cc1OC [Compound 11b, (S)-4-(1-(7,8-dimethoxy-1H-imidazo[4,5-c]quinolin-1-yl)ethyl)benzenesulfonamide] | 196 | – | –
12 | COc1ccc2c(ncc3[nH]c(=O)n(Cc4c(F)cc(C(N)=O)cc4F)c32)n1 [Compound 109, 3,5-difluoro-4-((7-methoxy-2-oxo-2,3-dihydro-1H-imidazo[4,5-c][1,8]naphthyridin-1-yl)methyl)benzamide] | – | – | IC50 (ENPP-1, MDA-MB-231 cells): > 20 µM; inhibition at 20 µM (ENPP-1, MDA-MB-231 cells): 11%
13 | COc1ccc2c(ncc3[nH]c(=O)n(Cc4cc(F)c(S(N)(=O)=O)c(F)c4)c32)n1 [Compound 100, 2,6-difluoro-4-((7-methoxy-2-oxo-2,3-dihydro-1H-imidazo[4,5-c][1,8]naphthyridin-1-yl)methyl)benzenesulfonamide] | 8.8 | – | –

More lines, in order of falling IC50 (human soluble ENPP1 [1]), values ahead:

Row | IC50 (human soluble ENPP1 [1]) [nM] | IC50 (human soluble ENPP1 [2]) [nM] | Compound | other results
14 | 884 | – | COc1cc2ncc3nnc(-c4ccc(CNS(N)(=O)=O)cc4)n3c2cc1OC [Compound 51, 4-(7,8-dimethoxy-[1,2,4]triazolo[4,3-a]quinoxalin-1-yl)benzyl sulfamide] | –
15 | 165 | – | COc1cc2ncc3ncn(Cc4cccc(S(N)(=O)=O)c4)c3c2cc1OC [Compound 37, 3-((7,8-dimethoxy-1H-imidazo[4,5-c]quinolin-1-yl)methyl)benzenesulfonamide] | –
16 | 65 | – | COc1cc2ncc3nnc(Cc4ccc(S(N)(=O)=O)cc4)n3c2cc1OC [Compound 44, 4-((7,8-dimethoxy-2λ^2,10λ^4-[1,2,4]triazolo[4,3-a]quinoxalin-1-yl)methyl)benzenesulfonamide] | –
17 | 38 | 141 | COc1ccc2c(ncc3[nH]c(=O)n(Cc4c(F)cc(NS(N)(=O)=O)cc4F)c32)n1 [Compound 138] | –
18 | 7.7 | – | COc1cc2ncc3ncn(CC4CCN(S(N)(=O)=O)CC4)c3c2cc1OC [Compound 32, 4-((7,8-dimethoxy-1H-imidazo[4,5-c]quinolin-1-yl)methyl)piperidine-1-sulfonamide] | –
19 | 1.7 | 7.2 | COc1ccc2c(ncc3nc(OC)n(Cc4ccc(S(N)(=O)=O)c(F)c4)c32)n1 [Compound 78, 4-((2,7-dimethoxy-1H-imidazo[4,5-c][1,8]naphthyridin-1-yl)methyl)-2-fluorobenzenesulfonamide] | –
20 | 0.3 | – | COc1ccc2c(c1)ncc1[nH]c(=O)n([C@H](C)c3ccc(S(N)(=O)=O)cc3)c12 [Compound 8, (R)-4-(1-(7-methoxy-2-oxo-2,3-dihydro-1H-imidazo[4,5-c]quinolin-1-yl)ethyl)benzenesulfonamide] | –
